Source: US8722849B2, “Polypeptides” (Novo Nordisk A/S, priority 2011, dated 2014)
Starred links: 1 amine or outer side, 2 acyl side, 3 side chain; linkers in the order of their positions; H or OH if unused. Positions of bridges follow the written chain, without caps; N, C: chain ends. Residues, ends and D or L forms follow the SMILES beside them. *: point of attachment. C20 diacid = O=C(O)CCCCCCCCCCCCCCCCCCC(=O)*; C18 diacid = O=C(O)CCCCCCCCCCCCCCCCC(=O)*; γGlu = O=C(O)[C@H](CCC(=O)[*:2])N[*:1]

These compounds were tested against T1, human calcitonin receptor (Homo sapiens, UniProt P30988) (assay: Assay (II)a functional CRE-luciferase assay, human calcitonin receptor). Settings: Table 7; human calcitonin (CTa) receptor.
T1 construct: expressed in transfected cells; host or cells: BHK570
T1 sequence (P30988 25-474): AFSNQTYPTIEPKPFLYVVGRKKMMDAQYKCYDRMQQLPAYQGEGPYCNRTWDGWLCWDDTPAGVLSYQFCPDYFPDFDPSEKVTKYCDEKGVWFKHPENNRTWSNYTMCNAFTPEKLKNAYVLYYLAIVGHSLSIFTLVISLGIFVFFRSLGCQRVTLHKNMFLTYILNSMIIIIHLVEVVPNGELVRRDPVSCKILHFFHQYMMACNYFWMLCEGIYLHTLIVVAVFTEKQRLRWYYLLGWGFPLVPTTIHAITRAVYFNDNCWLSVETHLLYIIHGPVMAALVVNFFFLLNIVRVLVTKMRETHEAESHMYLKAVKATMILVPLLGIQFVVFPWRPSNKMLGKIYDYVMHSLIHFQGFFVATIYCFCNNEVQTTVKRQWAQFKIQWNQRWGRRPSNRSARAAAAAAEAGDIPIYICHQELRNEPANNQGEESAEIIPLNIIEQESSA
Type: cell-based

EC50 [nM]	SMILES
0.459	CC[C@H](C)[C@H](NC(=O)[C@@H]1CCCN1C(=O)CNC(=O)[C@H](Cc1ccccc1)NC(=O)[C@H](CC(N)=O)NC(=O)[C@H](CC(N)=O)NC(=O)[C@H](CO)NC(=O)[C@H](CO)NC(=O)[C@H](Cc1c[nH]cn1)NC(=O)[C@H](CCCNC(=N)N)NC(=O)[C@H](CC(C)C)NC(=O)[C@H](Cc1ccccc1)NC(=O)[C@H](CCC(=O)O)NC(=O)[C@H](C)NC(=O)[C@H](CC(C)C)NC(=O)[C@H](CCCNC(=N)N)NC(=O)[C@H](CCC(N)=O)NC(=O)[C@@H](NC(=O)[C@H](C)NC(=O)[C@@H]1CSSC[C@H](NC(=O)[C@H](CCCCN)NC(=O)CC[C@H](NC(=O)CCCCCCCCCCCCCCCCCCC(=O)O)C(=O)O)C(=O)N[C@@H](CC(N)=O)C(=O)N[C@@H]([C@@H](C)O)C(=O)N[C@@H](C)C(=O)N[C@@H]([C@@H](C)O)C(=O)N1)[C@@H](C)O)C(=O)N[C@@H](CC(C)C)C(=O)N1CCC[C@H]1C(=O)N1CCC[C@H]1C(=O)N[C@H](C(=O)N[C@@H](CC(N)=O)C(=O)N[C@H](C(=O)NCC(=O)N[C@@H](CO)C(=O)N[C@@H](CC(N)=O)C(=O)N[C@H](C(=O)N[C@@H](Cc1ccc(O)cc1)C(N)=O)[C@@H](C)O)C(C)C)[C@@H](C)O [Example 50, N-alpha-[(S)-4-Carboxy-4-(19-carboxynonadecanoylamino)butyryl]-[Glu14,Arg17]-pramlintide] ({C20 diacid-γGlu}-KCNTATCATQRLAEFLRHSSNNFGPILPPTNVGSNTY-NH2; disulfide 2-7 (inferred))
0.169	CC[C@H](C)[C@H](NC(=O)[C@@H]1CCCN1C(=O)CNC(=O)[C@H](Cc1ccccc1)NC(=O)[C@H](CC(N)=O)NC(=O)[C@H](CCC(N)=O)NC(=O)[C@H](CO)NC(=O)[C@H](CO)NC(=O)[C@H](Cc1c[nH]cn1)NC(=O)[C@H](Cc1c[nH]cn1)NC(=O)[C@H](CC(C)C)NC(=O)[C@H](Cc1ccccc1)NC(=O)[C@H](CCC(=O)O)NC(=O)[C@H](C)NC(=O)[C@H](CC(C)C)NC(=O)[C@H](CCCNC(=N)N)NC(=O)[C@H](CCC(N)=O)NC(=O)[C@@H](NC(=O)[C@H](C)NC(=O)[C@@H]1CSSC[C@H](NC(=O)[C@H](CCCCN)NC(=O)CC[C@H](NC(=O)CCCCCCCCCCCCCCCCCCC(=O)O)C(=O)O)C(=O)N[C@@H](CC(N)=O)C(=O)N[C@@H]([C@@H](C)O)C(=O)N[C@@H](C)C(=O)N[C@@H]([C@@H](C)O)C(=O)N1)[C@@H](C)O)C(=O)N[C@@H](CC(C)C)C(=O)N1CCC[C@H]1C(=O)N1CCC[C@H]1C(=O)N[C@H](C(=O)N[C@@H](CC(N)=O)C(=O)N[C@H](C(=O)NCC(=O)N[C@@H](CO)C(=O)N[C@@H](Cc1c[nH]cn1)C(=O)N[C@H](C(=O)N[C@@H](Cc1ccc(O)cc1)C(N)=O)[C@@H](C)O)C(C)C)[C@@H](C)O [Example 117, N-alpha-[(S)-4-Carboxy-4-(19-carboxynonadecanoylamino)butyryl]-[Glu14,His17,Gln21,His35)-pramlintide] ({C20 diacid-γGlu}-KCNTATCATQRLAEFLHHSSQNFGPILPPTNVGSHTY-NH2; disulfide 2-7 (inferred); C-terminus assumed)
0.131	CC[C@H](C)[C@H](NC(=O)[C@H](CCC(=O)O)NC(=O)CNC(=O)[C@H](Cc1ccccc1)NC(=O)[C@H](CC(N)=O)NC(=O)[C@H](CC(N)=O)NC(=O)[C@H](CO)NC(=O)[C@H](CO)NC(=O)[C@H](CCCNC(=N)N)NC(=O)[C@H](Cc1c[nH]cn1)NC(=O)[C@H](CC(C)C)NC(=O)[C@H](Cc1ccccc1)NC(=O)[C@H](CCC(=O)O)NC(=O)[C@H](C)NC(=O)[C@H](CC(C)C)NC(=O)[C@H](CCCNC(=N)N)NC(=O)[C@H](CCC(N)=O)NC(=O)[C@@H](NC(=O)[C@H](C)NC(=O)[C@@H]1CSSC[C@H](NC(=O)[C@H](Cc2c[nH]cn2)NC(=O)CC[C@H](NC(=O)CCCCCCCCCCCCCCCCCCC(=O)O)C(=O)O)C(=O)N[C@@H](CC(N)=O)C(=O)N[C@@H]([C@@H](C)O)C(=O)N[C@@H](C)C(=O)N[C@@H]([C@@H](C)O)C(=O)N1)[C@@H](C)O)C(=O)N[C@@H](CC(C)C)C(=O)N[C@@H](CO)C(=O)N[C@@H](CCCNC(=N)N)C(=O)N[C@H](C(=O)N[C@@H](CC(N)=O)C(=O)N[C@H](C(=O)NCC(=O)N[C@@H](CO)C(=O)N[C@@H](CC(N)=O)C(=O)N[C@H](C(=O)N[C@@H](Cc1ccc(O)cc1)C(N)=O)[C@@H](C)O)C(C)C)[C@@H](C)O [Example 7, N-alpha-[(S)-4-Carboxy-4-(19-carboxynonadecanoylamino)butyryl]-[His1,Glu14,His17,Arg18,Glu25,Ser28,Arg29]-pramlintide] ({C20 diacid-γGlu}-HCNTATCATQRLAEFLHRSSNNFGEILSRTNVGSNTY-NH2; disulfide 2-7 (inferred); C-terminus assumed)
0.947	CC[C@H](C)[C@H](NC(=O)[C@@H]1CCCN1C(=O)CNC(=O)[C@H](Cc1ccccc1)NC(=O)[C@H](CC(N)=O)NC(=O)[C@H](CC(N)=O)NC(=O)[C@H](CO)NC(=O)[C@H](CO)NC(=O)[C@H](Cc1c[nH]cn1)NC(=O)[C@H](CCCNC(=N)N)NC(=O)[C@H](CC(C)C)NC(=O)[C@H](Cc1ccccc1)NC(=O)[C@H](CCC(=O)O)NC(=O)[C@H](C)NC(=O)[C@H](CC(C)C)NC(=O)[C@H](CCCNC(=N)N)NC(=O)[C@H](CCC(N)=O)NC(=O)[C@@H](NC(=O)[C@H](C)NC(=O)[C@@H]1CSSC[C@H](NC(=O)[C@H](CCCCN)NC(=O)[C@H](Cc2c[nH]cn2)NC(=O)CC[C@H](NC(=O)CCCCCCCCCCCCCCCCC(=O)O)C(=O)O)C(=O)N[C@@H](CC(N)=O)C(=O)N[C@@H]([C@@H](C)O)C(=O)N[C@@H](C)C(=O)N[C@@H]([C@@H](C)O)C(=O)N1)[C@@H](C)O)C(=O)N[C@@H](CC(C)C)C(=O)N1CCC[C@H]1C(=O)N1CCC[C@H]1C(=O)N[C@H](C(=O)N[C@@H](CC(N)=O)C(=O)N[C@H](C(=O)NCC(=O)N[C@@H](CO)C(=O)N[C@@H](Cc1c[nH]cn1)C(=O)N[C@H](C(=O)N[C@@H](Cc1ccc(O)cc1)C(N)=O)[C@@H](C)O)C(C)C)[C@@H](C)O [Example 71, N-alpha-[(S)-4-Carboxy-4-(17-carboxyheptadecanoylamino)butyryl]-His-[Glu14,Arg17,His35]-pramlintide] ({C18 diacid-γGlu}-HKCNTATCATQRLAEFLRHSSNNFGPILPPTNVGSHTY-NH2; disulfide 3-8 (inferred); C-terminus assumed)
